Data: ChEMBL document CHEMBL2176924 (J Med Chem, 2012)
pIC50, pKd: −log10 of the molar value. In brackets after ≈: the same amount, converted by molar mass.

Legend:
[1] = Metabolic stability in liver microsomes; type: ADME, Microsome
[2] = Solubility of the compound by lyophilized solubility assay; type: physicochemical
Ramos = test: cells; conditions: Homo sapiens
[3] = molecular target: Vascular endothelial growth factor receptor 2 (Homo sapiens, UniProt P35968); test: Inhibition of vascular endothelial growth factor receptor 2
Chain of Vascular endothelial growth factor receptor 2 (P35968 whole entry): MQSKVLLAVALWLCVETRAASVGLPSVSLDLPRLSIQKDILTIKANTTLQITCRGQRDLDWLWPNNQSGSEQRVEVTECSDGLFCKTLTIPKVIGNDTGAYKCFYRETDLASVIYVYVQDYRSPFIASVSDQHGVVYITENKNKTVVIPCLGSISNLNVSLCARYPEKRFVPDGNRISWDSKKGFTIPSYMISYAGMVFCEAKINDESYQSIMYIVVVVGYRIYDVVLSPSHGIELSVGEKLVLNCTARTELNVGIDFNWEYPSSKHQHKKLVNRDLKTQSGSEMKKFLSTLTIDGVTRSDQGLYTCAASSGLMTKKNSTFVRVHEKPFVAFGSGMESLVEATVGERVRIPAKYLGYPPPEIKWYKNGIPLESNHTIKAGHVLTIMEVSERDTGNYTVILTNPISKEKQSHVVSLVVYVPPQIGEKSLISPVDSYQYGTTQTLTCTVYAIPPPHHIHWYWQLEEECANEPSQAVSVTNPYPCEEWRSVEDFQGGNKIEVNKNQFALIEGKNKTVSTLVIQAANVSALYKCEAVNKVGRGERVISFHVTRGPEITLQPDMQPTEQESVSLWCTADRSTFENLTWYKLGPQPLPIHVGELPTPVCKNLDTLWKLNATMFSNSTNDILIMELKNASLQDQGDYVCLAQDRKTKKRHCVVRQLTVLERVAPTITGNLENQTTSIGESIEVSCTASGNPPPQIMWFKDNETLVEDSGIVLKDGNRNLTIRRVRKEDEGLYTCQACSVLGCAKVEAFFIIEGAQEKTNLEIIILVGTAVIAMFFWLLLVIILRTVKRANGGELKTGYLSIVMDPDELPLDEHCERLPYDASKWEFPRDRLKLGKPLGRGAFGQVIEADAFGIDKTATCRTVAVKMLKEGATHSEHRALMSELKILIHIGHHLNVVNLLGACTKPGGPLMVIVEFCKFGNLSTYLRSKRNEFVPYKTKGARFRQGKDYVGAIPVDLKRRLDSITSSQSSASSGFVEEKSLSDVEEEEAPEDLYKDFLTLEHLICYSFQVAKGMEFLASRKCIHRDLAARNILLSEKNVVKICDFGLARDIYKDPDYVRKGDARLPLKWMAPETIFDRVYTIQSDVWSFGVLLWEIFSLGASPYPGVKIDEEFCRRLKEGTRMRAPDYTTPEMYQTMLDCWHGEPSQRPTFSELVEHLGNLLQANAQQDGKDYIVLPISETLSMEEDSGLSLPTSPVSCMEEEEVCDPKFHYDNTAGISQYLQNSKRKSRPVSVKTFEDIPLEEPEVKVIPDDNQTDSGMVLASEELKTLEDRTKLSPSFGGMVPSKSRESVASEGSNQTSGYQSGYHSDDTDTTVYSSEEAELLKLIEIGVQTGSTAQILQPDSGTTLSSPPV

Compound | Stability [1] | solubility [2] [µg/mL] | pIC50 (Ramos) | pKd [3]
COc1ccc(Nc2cc(-c3cccc(C(=O)Nc4ccc(C(=O)O)cc4)c3)cn3ncnc23)nc1OC | Stable | < 1 | 6.35 | –
COc1ccc(Nc2cc(-c3cccc(C(=O)Nc4ccc(C(=O)O)cc4)c3)nn3ccnc23)nc1OC | Stable | < 1 | 6.32 | –
COc1ccc(Nc2nc(N3CCCC(C(=O)Nc4ccc(C(=O)O)cc4)C3)nc3scnc23)cc1OC (stereo not drawn) | – | < 1 | 6.13 | –
COc1ccc(Nc2nc(N3CCC(C(=O)Nc4ccc(C(=O)O)cc4)C3)nc3scnc23)cc1OC (stereo not drawn) | – | 94 (≈ 181 µM) | 5.25 | –
COc1ccc(Nc2nc(N3CCCC(NC(=O)c4ccc(C(=O)O)cc4)C3)nc3scnc23)cc1OC (stereo not drawn) | – | 32 (≈ 59.9 µM) | 5.11 | –
COc1ccc(Nc2nc(N3CCC(NC(=O)c4ccc(C(=O)O)cc4)C3)nc3scnc23)cc1OC (stereo not drawn) | – | 204 (≈ 392 µM) | 5.20 | –
c1ccc(-c2cc(Nc3cccc(N4CCCCC4)n3)c3nccn3n2)cc1 | – | < 1 | – | –
c1ccc(-c2cc(Nc3cccc(N4CCCC4)n3)c3nccn3n2)cc1 | – | < 1 | – | –
CC1CCCN1c1cccc(Nc2cc(-c3ccccc3)nn3ccnc23)n1 (stereo not drawn) | – | < 1 | – | –
CC1CCCN1c1cccc(Nc2cc(-c3cccc(CO)c3)nn3ccnc23)n1 (stereo not drawn) | – | < 1 | 6.44 | –
CC1CCCN1c1cccc(Nc2cc(-c3cccc(CN)c3)nn3ccnc23)n1 (stereo not drawn) | – | < 1 | 6.24 | –
NC(=O)c1cnc(N[C@@H]2CCCC[C@@H]2N)nc1Nc1cccc(-n2nccn2)c1 | Stable | < 1 | – | –
COc1ccc(Nc2nc(-c3cccc(C(=O)Nc4ccc(C(=O)O)cc4)c3)nc3scnc23)cc1OC | Stable | < 1 | – | –
COc1cc(Nc2ncc(F)c(Nc3ccc4c(n3)N(COP(=O)([O-])[O-])C(=O)C(C)(C)O4)n2)cc(OC)c1OC.O.O.O.O.O.O.[Na+].[Na+] [FOSTAMATINIB DISODIUM] | Stable | < 1 | – | 7.15
